In brackets after ≈: the same amount, converted by molar mass.
Key:
Type in all cases: functional
[1] = tested on: Mycobacterium tuberculosis; assay: Antitubercular activity against isoniazid/ethionamide resistant Mycobacterium tuberculosis isolate 1 after 7 days; settings: isolate 1, 168 h
[2] = tested on: Mycobacterium tuberculosis; assay: Antitubercular activity against isoniazid/rifampicin resistant Mycobacterium tuberculosis isolate 5 after 7 days; settings: isolate 5, 168 h
[3] = tested on: Mycobacterium tuberculosis; assay: Antitubercular activity against multidrug-resistant Mycobacterium tuberculosis isolate 3 after 7 days; settings: isolate 3, 168 h
[4] = tested on: Mycobacterium tuberculosis; assay: Antitubercular activity against isoniazid/ethionamide resistant Mycobacterium tuberculosis isolate 2 after 7 days; settings: isolate 2, 168 h
[5] = tested on: Mycobacterium tuberculosis; assay: Antitubercular activity against multidrug-resistant Mycobacterium tuberculosis isolate 8 after 7 days; settings: isolate 8, 168 h
[6] = tested on: Mycobacterium tuberculosis; assay: Antitubercular activity against multidrug-resistant Mycobacterium tuberculosis isolate 7 after 7 days; settings: isolate 7, 168 h
[7] = tested on: Mycobacterium tuberculosis; assay: Antitubercular activity against multidrug-resistant Mycobacterium tuberculosis isolate 6 after 7 days; settings: isolate 6, 168 h
[8] = tested on: Mycobacterium tuberculosis; assay: Antitubercular activity against multidrug-resistant Mycobacterium tuberculosis isolate 4 after 7 days; settings: isolate 4, 168 h

Structure (SMILES) | MIC [1] [µg/mL] | MIC [2] [µg/mL] | MIC [3] [µg/mL] | MIC [4] [µg/mL] | MIC [5] [µg/mL] | MIC [6] [µg/mL] | MIC [7] [µg/mL] | MIC [8] [µg/mL]
Cc1nc(C)c(C(=O)N(c2cccc(C)c2C)C(C(=O)NC2CCCCC2)c2cccnc2)s1 (stereo not drawn) | 4 (≈ 8.39 µM) | 2 (≈ 4.2 µM) | 1 (≈ 2.1 µM) | 1 (≈ 2.1 µM) | 8 (≈ 16.8 µM) | 2 (≈ 4.2 µM) | 8 (≈ 16.8 µM) | 2 (≈ 4.2 µM)
CC[C@@H](CO)NCCN[C@@H](CC)CO [ETHAMBUTOL] | 2 (≈ 9.79 µM) |  | 4 (≈ 19.6 µM) | 4 (≈ 19.6 µM) | > 8 | 8 (≈ 39.2 µM) | 4 (≈ 19.6 µM) | 8 (≈ 39.2 µM)
NNC(=O)c1ccncc1 [ISONIAZID] | 5 (≈ 36.5 µM) | 5 (≈ 36.5 µM) | > 0.2 | > 0.2 | 5 (≈ 36.5 µM) | 5 (≈ 36.5 µM) | > 5 | > 5
NC[C@H]1O[C@H](O[C@H]2[C@H](O)[C@@H](O[C@H]3O[C@H](CO)[C@@H](O)[C@H](N)[C@H]3O)[C@H](N)C[C@@H]2N)[C@H](O)[C@@H](O)[C@@H]1O [KANAMYCIN] | 16 (≈ 33 µM) |  | 32 (≈ 66 µM) | 32 (≈ 66 µM) | 16 (≈ 33 µM) | 8 (≈ 16.5 µM) | 8 (≈ 16.5 µM) | 8 (≈ 16.5 µM)
CO[C@H]1/C=C/O[C@@]2(C)Oc3c(C)c(O)c4c(O)c(c(/C=N/N5CCN(C)CC5)c(O)c4c3C2=O)NC(=O)/C(C)=C\C=C\[C@H](C)[C@H](O)[C@@H](C)[C@@H](O)[C@@H](C)[C@H](OC(C)=O)[C@@H]1C [RIFAMPIN] | 32 (≈ 38.9 µM) | 128 (≈ 156 µM) | 64 (≈ 77.8 µM) | 4 (≈ 4.86 µM) | > 128 | > 128 | 128 (≈ 156 µM) | 32 (≈ 38.9 µM)

Source: ChEMBL document CHEMBL4422644, “Synthesis and evaluation of α-aminoacyl amides as antitubercular agents effective on drug resistant tuberculosis” (Eur J Med Chem, 2019)
